Tested on: 242566-281-R-J2-PDC complex spheroid viability
Experiment: Anticancer human tumor 242566-281-R-J2-PDC patient-derived pancreatic carcinoma cell line growth inhibition [RAS]
Settings: for IC50: curve of first compound; for viability, T/C: stronger effect = lower value
In short: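 Agents were tested in combination matrices in half-log decrements from a top concentration at or near clinical Cmax (10 microM if undetermined). Targets were multi-cell spheroids of tumour lines plus HUVEC and MSC stromal cells.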
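Further: spheroids exposed to compound for 7 days before readout.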
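Wherever viability, T/C is given: 100% = DMSO vehicle control wells.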

For C[C@@H](NC(=O)c1ncnc(N)c1Cl)c1ncc(C(=O)Nc2cc(C(F)(F)F)c(Cl)cn2)s1 + C=CC(=O)N1CCN(c2nc(OCC3CCCN3C)nc3c(F)c(-c4nc(N)cc(C)c4C(F)(F)F)c(Cl)cc23)C(C)C1, the IC50 (second compound 0.00316 µM) was > 10 µM, the IC50 (second compound 0.01 µM) was > 10 µM and the IC50 (second compound 0.0316 µM) was > 10 µM. For the same compound, the IC50 (second compound 0.1 µM) was > 10 µM, the IC50 (second compound 0.316 µM) was > 10 µM and the IC50 (second compound 1 µM) was > 10 µM. The viability, T/C (second compound 0.00316 µM, first compound 0.0316 µM) was 111%, the viability, T/C (second compound 0.00316 µM, first compound 0.1 µM) was 142% and the viability, T/C (second compound 0.00316 µM, first compound 0.316 µM) was 111%. The viability, T/C (second compound 0.00316 µM, first compound 1 µM) was 106%, the viability, T/C (second compound 0.00316 µM, first compound 3.16 µM) was 110% and the viability, T/C (second compound 0.00316 µM, first compound 10 µM) was 126%. The viability, T/C (second compound 0.01 µM, first compound 0.0316 µM) was 112%, the viability, T/C (second compound 0.01 µM, first compound 0.1 µM) was 148% and the viability, T/C (second compound 0.01 µM, first compound 0.316 µM) was 113%. For the same compound, the viability, T/C (second compound 0.01 µM, first compound 1 µM) was 105%, the viability, T/C (second compound 0.01 µM, first compound 3.16 µM) was 105% and the viability, T/C (second compound 0.01 µM, first compound 10 µM) was 122%. The viability, T/C (second compound 0.0316 µM, first compound 0.0316 µM) was 125%, the viability, T/C (second compound 0.0316 µM, first compound 0.1 µM) was 124% and the viability, T/C (second compound 0.0316 µM, first compound 0.316 µM) was 115%. It also gave a viability, T/C (second compound 0.0316 µM, first compound 1 µM) of 123%, a viability, T/C (second compound 0.0316 µM, first compound 3.16 µM) of 97.1% and a viability, T/C (second compound 0.0316 µM, first compound 10 µM) of 118%. For the same compound, the viability, T/C (second compound 0.1 µM, first compound 0.0316 µM) was 122%, the viability, T/C (second compound 0.1 µM, first compound 0.1 µM) was 153% and the viability, T/C (second compound 0.1 µM, first compound 0.316 µM) was 107%. The viability, T/C (second compound 0.1 µM, first compound 1 µM) was 113%, the viability, T/C (second compound 0.1 µM, first compound 3.16 µM) was 106% and the viability, T/C (second compound 0.1 µM, first compound 10 µM) was 109%. It also gave a viability, T/C (second compound 0.316 µM, first compound 0.0316 µM) of 107%, a viability, T/C (second compound 0.316 µM, first compound 0.1 µM) of 124% and a viability, T/C (second compound 0.316 µM, first compound 0.316 µM) of 122%. For the same compound, the viability, T/C (second compound 0.316 µM, first compound 1 µM) was 112%, the viability, T/C (second compound 0.316 µM, first compound 3.16 µM) was 110% and the viability, T/C (second compound 0.316 µM, first compound 10 µM) was 124%. For the same compound, the viability, T/C (second compound 1 µM, first compound 0.0316 µM) was 111%, the viability, T/C (second compound 1 µM, first compound 0.1 µM) was 124% and the viability, T/C (second compound 1 µM, first compound 0.316 µM) was 119%. It also gave a viability, T/C (second compound 1 µM, first compound 1 µM) of 103%, a viability, T/C (second compound 1 µM, first compound 3.16 µM) of 117% and a viability, T/C (second compound 1 µM, first compound 10 µM) of 106%.

From PubChem BioAssay AID2060910 (Molecular Pharmacology Branch, DTP, NCI, 2025)
